Laboratory results published in patent US12624037B2, “Method of treating agitation, aggressive behavior, and impulse control disorder” (INTRA-CELLULAR THERAPIES, INC., priority 2012, dated 2026).

What was measured:
healthy male volunteers [1] = test: Randomized, double-blind, placebo-controlled single oral dose escalation study (safety, tolerability, pharmacokinetics); format: in vivo, human
Description: (§1) Pregnant or nursing women are excluded and men and women of childbearing potential use birth control.

[2] = as above; format: in vivo, human; details: male, human, plasma; oral administration
Description: as §1

Mice [3] = test: Social defeat/resident intruder paradigm, social isolation behavior; format: in vivo
Protocol: Mice are tested for social isolation behavior after repeated exposure (once daily for 10 days) to an aggressive resident intruder mouse in the social defeat/resident intruder paradigm as describe by Berton et al., Science (2006) 311:864-868, the contents of which are incorporated by reference. […] On the day after the last drug or vehicle treatment, the mice are placed in the open field in the presence of a resident intruder mouse and the animal's behavior recorded by videotape for 10 min. The videotapes are then scored for the total time each mouse spent during a 10 min period in specified open-field quadrants. The total time (sec) spent by mice representing each drug treatment group in the Interaction Zone in proximity to the resident intruder mouse or, in the Corner Zones, at a distance from the intruder mouse is expressed as a mean (±SEM).
In the experiment described or similarly described above, mice are subjected to exposure to an aggressive resident intruder mouse in the social defeat/resident intruder paradigm as described in Berton et al., Science (2006) 311:864-868. […] On the day after the last drug or vehicle treatment the mice are placed in the open field in the presence of a resident intruder mouse and the total time each mouse spent during a 10 min period in defined open-field quadrants in close proximity to the intruder or in isolation to the intruder is measured.

H1 = H1 (Homo sapiens, UniProt P35367); test: H1 receptor affinity (off-target); format: binding
Chain of H1 (P35367 whole entry): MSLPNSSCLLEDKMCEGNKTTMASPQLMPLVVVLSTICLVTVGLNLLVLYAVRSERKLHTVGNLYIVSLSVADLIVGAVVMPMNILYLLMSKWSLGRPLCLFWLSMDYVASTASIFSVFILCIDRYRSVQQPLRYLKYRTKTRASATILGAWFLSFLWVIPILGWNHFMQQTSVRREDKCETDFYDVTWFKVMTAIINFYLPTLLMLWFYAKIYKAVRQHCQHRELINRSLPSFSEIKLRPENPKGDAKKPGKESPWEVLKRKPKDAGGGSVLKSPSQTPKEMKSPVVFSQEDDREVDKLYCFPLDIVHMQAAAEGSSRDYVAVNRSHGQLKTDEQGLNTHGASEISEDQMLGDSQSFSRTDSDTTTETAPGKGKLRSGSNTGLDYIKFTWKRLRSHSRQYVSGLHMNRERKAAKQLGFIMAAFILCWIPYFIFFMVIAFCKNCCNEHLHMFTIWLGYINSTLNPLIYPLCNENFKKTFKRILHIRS

muscarinic receptors = test: Muscarinic receptor affinity; format: binding
any CYP enzyme = test: CYP enzyme inhibition; format: in vitro ADME
5-HT2C receptor = 5-HT2C receptor (Homo sapiens, UniProt P28335); details: read-out: 5-HT2C Ki
Chain of 5-HT2C receptor (P28335 33-458): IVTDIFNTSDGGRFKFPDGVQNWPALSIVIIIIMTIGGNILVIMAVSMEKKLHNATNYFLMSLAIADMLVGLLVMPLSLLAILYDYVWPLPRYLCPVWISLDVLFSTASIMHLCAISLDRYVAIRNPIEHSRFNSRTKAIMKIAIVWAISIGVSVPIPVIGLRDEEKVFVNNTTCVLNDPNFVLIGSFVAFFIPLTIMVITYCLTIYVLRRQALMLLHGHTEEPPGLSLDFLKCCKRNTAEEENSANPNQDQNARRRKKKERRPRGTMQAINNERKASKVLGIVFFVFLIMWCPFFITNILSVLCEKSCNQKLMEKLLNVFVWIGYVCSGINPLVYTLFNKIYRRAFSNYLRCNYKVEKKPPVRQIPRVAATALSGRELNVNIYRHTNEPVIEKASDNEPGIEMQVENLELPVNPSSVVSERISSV

healthy male volunteers [4] = test: Placebo-controlled multiple oral dose study, once daily for 5 days; format: in vivo, human
Description: as §1

[5] = system: healthy volunteer and clinical populations; test: Safety and tolerability in healthy volunteer and clinical populations; format: in vivo, human
Description: Physical Risks: Side effects are listed in the informed consent and reviewed carefully with the subject.
as §1

[6] = system: veterans with non-remitting posttraumatic stress disorder; test: Open label study of Compound A as adjunctive treatment to SSRI in non-remitting PTSD; format: in vivo, human
Protocol: The target dose is 40 mg/d, but the dose is reduced to 20 mg/d as needed due to side effects. The study medication is stored and dispensed by the TVAMC pharmacy. The baseline SSRI medication is continued throughout the 12-wks study.
Baseline Procedures and Follow-up Assessments: Subjects are assessed by the investigators or trained clinical research coordinators with telephone contacts every two weeks and the assessments (indicated in the Table below) every four weeks.
Clinician Administered PTSD Scale (CAPS; Primary Outcome): A structured clinician-administered interview is used to assess frequency and intensity of 17 symptoms of PTSD. The CAPS is further subdivided into three clusters to allow scoring for Criterion B (re-experiencing), Criterion C (avoidant behaviors) and Criterion D (hyper-arousal). […]
In addition to change scores, rates of response (≥30% decrease in CAPS) and remission ([…]) are determined Within-group effect sizes using Cohen's d for the continuous outcomes is determined. The number needed to treat (NNT) for response and remission rates is determined. […]

[7] = biological target: cytochrome P450 3A4 (CYP3A4) (Homo sapiens, UniProt P08684); test: Metabolism by cytochrome P450; format: in vitro ADME
Chain of cytochrome P450 3A4 (CYP3A4) (P08684 whole entry): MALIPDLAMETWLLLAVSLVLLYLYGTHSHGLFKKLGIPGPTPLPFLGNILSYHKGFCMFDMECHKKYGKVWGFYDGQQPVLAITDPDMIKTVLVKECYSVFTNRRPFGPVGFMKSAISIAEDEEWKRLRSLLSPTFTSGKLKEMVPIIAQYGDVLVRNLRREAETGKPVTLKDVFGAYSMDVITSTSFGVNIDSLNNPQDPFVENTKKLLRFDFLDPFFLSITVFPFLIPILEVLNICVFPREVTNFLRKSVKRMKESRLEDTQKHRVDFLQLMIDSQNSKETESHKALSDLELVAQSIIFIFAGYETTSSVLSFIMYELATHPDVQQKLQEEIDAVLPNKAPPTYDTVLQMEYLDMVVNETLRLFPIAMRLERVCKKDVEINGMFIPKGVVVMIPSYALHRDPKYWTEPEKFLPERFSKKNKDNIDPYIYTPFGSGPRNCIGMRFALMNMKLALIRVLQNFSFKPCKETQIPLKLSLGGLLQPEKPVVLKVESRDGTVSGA

Mice [8] = details: chronic administration; Berton et al., Science (2006); cited from earlier work
[9] = chronic treatment 1 mg/kg IP, 30 d

CN1CCN2c3c(cccc31)[C@@H]1CN(CCCC(=O)c3ccc(F)cc3)CC[C@@H]12 [Compound A]
dose dependence of pharmacokinetics (healthy male volunteers [1]; oral administration of increasing doses): dose-proportional linear pharmacokentics
QTc (healthy male volunteers [1]; single oral doses 2.5-30.0 mg): no significant increase
changes in 12-lead ECG or 24-hour Holter-ECG (healthy male volunteers [1]; single oral doses 2.5-30.0 mg): no clinically significant changes
changes in vital signs or clinical laboratory (healthy male volunteers [1]; single oral doses 2.5-30.0 mg): no dose-related clinically relevant changes
serious adverse events (healthy male volunteers [1]; single oral doses 2.5-30.0 mg): no serious adverse events
severity of adverse events (healthy male volunteers [1]; single oral doses 2.5-30.0 mg): mild to moderate
safety and tolerability (healthy male volunteers [1]; single oral doses of 2.5, 5.0, 10.0, 20.0 and 30.0 mg): safe and tolerated
Tmax [2]: ~1 h
time spent in the Interaction Zone, treatment alone (Mice [3]; 1 mg/kg IP once daily for 30 d, no defeat, compared with untreated control mice): did not result in differences
time spent in proximity to the intruder after exposure to the intruder paradigm (Mice [3]; 1 mg/kg IP once daily for 30 d, compared with Compound A alone): no significant reduction
effect on social defeat behavior (Mice [3]; [9]): reversal of social defeat behavior
functional anti-depressant activity (Mice [3]; [9]): has functional anti-depressant activity
Ki (H1): > 1000 nM
affinity for muscarinic receptors (muscarinic receptors): no affinity
CYP inhibition (any CYP enzyme): not a potent inhibitor
Ki (5-HT2C receptor): 173 nM
accumulation in plasma with repeated administration (healthy male volunteers [4]; Day 5 vs Day 1 pharmacokinetics): no accumulation
safety and tolerability (healthy male volunteers [4]; multiple oral doses of 5, 10 and 20 mg once daily for 5 days): safe and well tolerated
severity of adverse events ([5]; headache, dizziness, postural tachycardia, dry mouth, gastrointestinal complaints, somnolence): mild to moderate
hyper-prolactinemia ([5]; human, in vivo): does not produce hyper-prolactinemia
sexual dysfunction ([5]; human, in vivo): no reports of sexual dysfunction
safety and tolerability ([5]; range of doses 1-140 mg): safe and well-tolerated
cardiovascular side effects such as postural hypotension ([5]; related to alpha 1A activity, to date): not been associated with any cardiovascular side effects
efficacy for treatment of PTSD ([6]; adjunctive to SSRI, 12 weeks): effective
change in rating scale scores (CAPS, QIDS-SR, CGI-I, PANSS, SDS) ([6]; baseline to end of 12-week treatment, 20-40 mg/d adjunctive to SSRI): significant decline
metabolizing enzyme [7]: metabolized predominantly by cytochrome P450 3A4 (CYP3A4)

CNCCC(Oc1ccc(C(F)(F)F)cc1)c1ccccc1 (stereo not drawn) [fluoxetine]
isolation behavior in social defeat/resident intruder model (Mice [8]): reversed
